One assay has as its target Human plasma kallikrein (Homo sapiens (Human), UniProt P03952). In words: Kallikrein Assay (fluorogenic substrate Acetyl-K-P-R-AFC). The following applies: Plasma Kallikrein (PKal). Format: biochemical. The procedure: (§1) The effectiveness of a compound of the present invention as an inhibitor of Kallikrein can be determined using a relevant purified serine protease, and an appropriate synthetic substrate. The rate of hydrolysis of the chromogenic or fluorogenic substrate by the relevant serine protease was measured both in the absence and presence of compounds of the present invention. Assays were conducted at room temperature or at 37° C. […] A decrease in the rate of fluorescence change in the presence of inhibitor is indicative of enzyme inhibition. Such methods are known to one skilled in the art. The results of this assay are expressed as the half-maximal inhibitory concentrations (IC50), or the inhibitory constant, Ki.
Kallikrein determinations were made in 50 mM HEPES buffer at pH 7.4 containing 150 mM NaCl, 5 mM CaC12, and 0.1% PEG 8000 (polyethylene glycol; Fisher Scientific). Determinations were made using purified Human plasma kallikrein at a final concentration of 0.5 nM (Enzyme Research Laboratories) and the synthetic substrate, Acetyl-K-P-R-AFC (Sigma # C6608) at a concentration of […].
Times required to achieve equilibration between enzyme and inhibitor were determined in control experiments. […] IC50 was determined by inflection point from a four parameter logistic curve fit. Ki was calculated using the Cheng Prusoff equation, Ki = IC50/(1+([S]/Km)).

The target in a further assay is human Factor XIa (Homo sapiens (Human), UniProt P03951). As to the kind of experiment: Factor XIa Assay (fluorogenic substrate GPR-AFC). Format: biochemical. The following applies: Factor XIa (FXIa). The procedure:
as §1, with “Coagulation Factor XIa” for “Kallikrein”
Compounds were pre-incubated for 30 minutes at 25° C. with human (0.04 nM) Factor XIa in 50 mM HEPES buffer with 150 mM sodium chloride, 5 mM calcium chloride, 0.1% PEG 8000, pH 7.4. […] The % inhibition for each data point was calculated from the data and analyzed using the log (inhibitor) vs. response four parameters equation to determine the half-maximal inhibitory concentrations (IC50). The IC50 were converted to equilibrium inhibitory constants (Ki) using the Cheng-Prusoff equation.

Each structure is given as a SMILES string.

Here are results for 16 molecules from US20230286958A1, “PLASMA KALLIKREIN INHIBITORS” (Merck Sharp & Dohme LLC, priority 2020, published 2023).

Sequence of human Factor XIa (P03951 388-625 limits assumed): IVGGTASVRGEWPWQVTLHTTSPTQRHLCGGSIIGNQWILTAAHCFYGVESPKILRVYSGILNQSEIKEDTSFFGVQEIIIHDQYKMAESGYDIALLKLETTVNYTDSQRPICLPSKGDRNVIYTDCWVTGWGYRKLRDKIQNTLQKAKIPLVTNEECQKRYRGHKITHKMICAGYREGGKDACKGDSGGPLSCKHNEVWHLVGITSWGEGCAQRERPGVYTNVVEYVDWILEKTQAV
Sequence of human Factor XIa (P03951 19-387 partner limits assumed): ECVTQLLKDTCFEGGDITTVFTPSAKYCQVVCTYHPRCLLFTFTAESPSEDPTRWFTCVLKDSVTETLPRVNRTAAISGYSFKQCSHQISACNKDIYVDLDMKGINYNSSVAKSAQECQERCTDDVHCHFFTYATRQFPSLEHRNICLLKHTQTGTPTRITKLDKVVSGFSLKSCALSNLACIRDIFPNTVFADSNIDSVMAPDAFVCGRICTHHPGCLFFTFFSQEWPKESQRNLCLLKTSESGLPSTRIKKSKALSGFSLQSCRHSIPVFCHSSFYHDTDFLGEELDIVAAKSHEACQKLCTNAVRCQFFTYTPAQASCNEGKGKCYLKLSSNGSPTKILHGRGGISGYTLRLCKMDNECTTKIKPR
Sequence of Human plasma kallikrein (P03952 391-638): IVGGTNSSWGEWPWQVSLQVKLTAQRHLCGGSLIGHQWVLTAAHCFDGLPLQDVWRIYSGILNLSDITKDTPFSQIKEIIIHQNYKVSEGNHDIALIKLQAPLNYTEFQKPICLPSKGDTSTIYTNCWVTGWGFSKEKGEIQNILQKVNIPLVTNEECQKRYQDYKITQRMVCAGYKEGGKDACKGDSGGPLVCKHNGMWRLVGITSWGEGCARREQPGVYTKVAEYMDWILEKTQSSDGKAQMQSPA
Sequence of Human plasma kallikrein (P03952 20-390 partner): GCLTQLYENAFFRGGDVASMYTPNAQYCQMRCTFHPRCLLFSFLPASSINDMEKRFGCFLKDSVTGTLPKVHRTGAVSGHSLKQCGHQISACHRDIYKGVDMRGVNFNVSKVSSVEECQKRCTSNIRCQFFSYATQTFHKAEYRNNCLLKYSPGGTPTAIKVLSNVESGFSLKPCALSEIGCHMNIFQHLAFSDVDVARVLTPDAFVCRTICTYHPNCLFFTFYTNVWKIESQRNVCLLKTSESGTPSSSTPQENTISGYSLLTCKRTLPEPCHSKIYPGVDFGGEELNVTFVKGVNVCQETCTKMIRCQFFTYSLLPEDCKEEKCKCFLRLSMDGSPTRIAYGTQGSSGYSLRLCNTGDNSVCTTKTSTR

As to `Cc1nc(N2C[C@H]3C[C@H]3C2=O)c(F)cc1C(C)n1cc(NC(=O)c2cncc(-c3c(C(F)F)ccc(Cl)c3F)n2)cn1` (some centres unmarked) [Example 150, 6-(3-Chloro-6-(difluoromethyl)-2-fluorophenyl)-N-(1-(1-(5-fluoro-2-methyl-6-((1R.5S)-2-oxo-3-azabicyclo[3.1.0]hexan-3-yl)pyridin-3-yl)ethyl)-1H-pyrazol-4-yl)pyrazine-2-carboxamide], the half-inhibitory concentration (IC50) – broadly, the concentration that gives 50% inhibition – was 177 nM against Human plasma kallikrein and more than 10000 nM on human Factor XIa.
For `CC(c1cnc(N2Cc3cccnc3C2=O)nc1)n1cc(NC(=O)c2cncc(-c3c(C(F)F)ccc(Cl)c3F)n2)cn1` (racemic) [Example 26, (S and R)-6-(3-Chloro-6-(difluoromethyl)-2-fluorophenyl)-N-(1-(1-(2-(7-oxo-5,7-dihydro-6H-pyrrolo[3,4-b]pyridin-6-yl)pyrimidin-5-yl)ethyl)-1H-pyrazol-4-yl)pyrazine-2-carboxamide] the same measures were 6.2 nM and more than 10000 nM.
As for `CC(c1cnc(N2C[C@H]3C[C@H]3C2=O)c(F)c1)n1cc(NC(=O)c2nc(-c3c(C(F)F)ccc(Cl)c3F)cnc2CO)cn1` (single isomer, unassigned) [Example 205, 6-(3-Chloro-6-(difluoromethyl)-2-fluorophenyl)-N-(1-((S or R)-1-(5-fluoro-6-((1R,5S)-2-oxo-3-azabicyclo[3.1.0]hexan-3-yl)pyridin-3-yl)ethyl)-1H-pyrazol-4-yl)-3-(hydroxymethyl)pyrazine-2-carboxamide], the concentration for half-maximal inhibition (IC50) against Human plasma kallikrein amounted to 0.3 nM; on human Factor XIa it was 389 nM.
As to `Cc1ncc(-c2c(C(F)F)ccc(Cl)c2F)nc1C(=O)Nc1cnn(Cc2cnc(N3C[C@H]4C[C@H]4C3=O)c(Cl)c2)c1` [Example 7, N-(1-((5-Chloro-6-((1R,5S)-2-oxo-3-azabicyclo[3.1.0]hexan-3-yl)pyridin-3-yl)methyl)-1H-pyrazol-4-yl)-6-(3-chloro-6-(difluoromethyl)-2-fluorophenyl)-3-methylpyrazine-2-carboxamide], the IC50 at Human plasma kallikrein amounted to 1.9 nM; on human Factor XIa it was 527 nM.
For `Cc1cc(N2C[C@H]3C[C@H]3C2=O)ccc1C(C)n1cc(NC(=O)c2cncc(-c3c(C(F)F)ccc(Cl)c3F)n2)cn1` (single isomer, unassigned) [Example 98, 6-(3-Chloro-6-(difluoromethyl)-2-fluorophenyl)-N-(1-((S or R)-1-(2-methyl-4-((1R,5S)-2-oxo-3-azabicyclo[3.1.0]hexan-3-yl)phenyl)ethyl)-1H-pyrazol-4-yl)pyrazine-2-carboxamide] the same measures were 1.4 nM and more than 10000 nM.
For `Cc1ncc(-c2c(C(F)F)ccc(Cl)c2F)nc1C(=O)Nc1cnn(C(C)c2cnc(N3C[C@H]4C[C@H]4C3=O)c(Cl)c2)c1` (stereo partly drawn) [Example 92, N-(1-((S)-1-(5-chloro-6-((1R,5S)-2-oxo-3-azabicyclo[3.1.0]hexan-3-yl)pyridin-3-yl)ethyl)-1H-pyrazol-4-yl)-6-(3-chloro-6-(difluoromethyl)-2-fluorophenyl)-3-methylpyrazine-2-carboxamide] the same measures were 1.3 nM and 577 nM.
The corresponding values for `Cc1cc(N2C[C@H]3C[C@H]3C2=O)ncc1C(C)n1cc(NC(=O)c2cncc(-c3c(C(F)F)ccc(Cl)c3F)n2)cn1` (single isomer, unassigned) [Example 68, 6-(3-Chloro-6-(difluoromethyl)-2-fluorophenyl)-N-(1-((S or R)-1-(4-methyl-6-((1R,5S)-2-oxo-3-azabicyclo[3.1.0]hexan-3-yl)pyridin-3-yl)ethyl)-1H-pyrazol-4-yl)pyrazine-2-carboxamide] are 1.1 nM and 5250 nM.
Turning to `Cc1c(C(C)n2cc(NC(=O)c3cncc(-c4c(C(F)F)ccc(Cl)c4F)n3)cn2)cnc(N2C[C@H]3C[C@H]3C2=O)c1C` (single isomer, unassigned) [Example 152, 6-(3-Chloro-6-(difluoromethyl)-2-fluorophenyl)-N-(1-((R or S)-1-(4,5-dimethyl-6-((1R,5S)-2-oxo-3-azabicyclo[3.1.0]hexan-3-yl)pyridin-3-yl)ethyl)-1H-pyrazol-4-yl)pyrazine-2-carboxamide], the 50% inhibitory concentration (IC50) is 0.3 nM on Human plasma kallikrein and 197 nM against human Factor XIa.
For `Cc1ncc(-c2c(C(F)F)ccc(Cl)c2F)nc1C(=O)Nc1cnn(C(C)c2ccc(N3CC4CC4C3=O)nc2)c1` (single isomer, unassigned) [Example 75, 6-(3-Chloro-6-(difluoromethyl)-2-fluorophenyl)-3-methyl-N-(1-((R or S)-1-(6-((1R,5S or 1S,5R)-2-oxo-3-azabicyclo[3.1.0]hexan-3-yl)pyridin-3-yl)ethyl)-1H-pyrazol-4-yl)pyrazine-2-carboxamide] the same measures were 4.8 nM and more than 10000 nM.
For `Cc1nc(N2C[C@H]3C[C@H]3C2=O)ncc1[C@H](C)n1cc(NC(=O)c2cncc(-c3c(C(F)F)ccc(Cl)c3F)n2)cn1` [Example 22, 6-(3-Chloro-6-(difluoromethyl)-2-fluorophenyl)-N-(1-((S)-1-(4-methyl-2-((1R,5S)-2-oxo-3-azabicyclo[3.1.0]hexan-3-yl)pyrimidin-5-yl)ethyl)-1H-pyrazol-4-yl)pyrazine-2-carboxamide] the same measures were 1.8 nM and 2730 nM.
For `Cc1ncc(-c2c(C(F)F)ccc(Cl)c2F)nc1C(=O)Nc1cnn(C(C)c2cnc(N3C[C@H]4C[C@H]4C3=O)c(OC(F)F)c2C)c1` (single isomer, unassigned) [Example 224], the half-maximal inhibitory concentration (IC50) at Human plasma kallikrein was 66.1 nM; at human Factor XIa, more than 10000 nM.
The corresponding values for `CC(c1ccc(N2CC3CC3C2=O)nc1)n1cc(NC(=O)c2cncc(-c3c(C(F)F)ccc(Cl)c3F)n2)cn1` (single isomer, unassigned) [Example 10, 6-(3-Chloro-6-(difluoromethyl)-2-fluorophenyl)-N-(1-((S or R)-1-(6-((1R,5S or 1S,5R)-2-oxo-3-azabicyclo[3.1.0]hexan-3-yl)pyridin-3-yl)ethyl)-1H-pyrazol-4-yl)pyrazine-2-carboxamide] are 16.8 nM and more than 10000 nM.
For `Cc1nc(C(C)n2cc(NC(=O)c3cncc(-c4c(C(F)F)ccc(Cl)c4F)n3)cn2)cnc1N1C[C@H]2C[C@H]2C1=O` (single isomer, unassigned) [Example 13, 6-(3-Chloro-6-(difluoromethyl)-2-fluorophenyl)-N-(1-((R or S)-1-(6-methyl-5-((1R,5S)-2-oxo-3-azabicyclo[3.1.0]hexan-3-yl)pyrazin-2-yl)ethyl)-1H-pyrazol-4-yl)pyrazine-2-carboxamide], the results for the half-maximal inhibitory concentration (IC50) against Human plasma kallikrein and against human Factor XIa were 0.5 nM and 2820 nM, respectively.
For `Cc1ncc(-c2c(C(F)F)ccc(Cl)c2F)nc1C(=O)Nc1cnn(C(C)c2ncc(N3C[C@H]4C[C@H]4C3=O)cc2Cl)c1` (single isomer, unassigned) [Example 147, N-(1-((R or S)-1-(3-Chloro-5-((1R,5S)-2-oxo-3-azabicyclo[3.1.0]hexan-3-yl)pyridin-2-yl)ethyl)-1H-pyrazol-4-yl)-6-(3-chloro-6-(difluoromethyl)-2-fluorophenyl)-3-methylpyrazine-2-carboxamide] the same measures were 2.9 nM and 7300 nM.
The corresponding values for `Cc1nc(N2C[C@H]3C[C@H]3C2=O)ncc1C1(n2cc(NC(=O)c3nc(-c4c(C(F)F)ccc(Cl)c4F)cnc3C)cn2)CC1` [Example 54, 6-(3-Chloro-6-(difluoromethyl)-2-fluorophenyl)-3-methyl-N(1-(1-(4-methyl-2-((1R,5S)-2-oxo-3-azabicyclo[3.1.0]hexan-3-yl)pyrimidin-5-yl)cyclopropyl)-1H-pyrazol-4-yl)pyrazine-2-carboxamide] are 2.4 nM and 1280 nM.
The corresponding values for `Cc1nc(N2C[C@H]3C[C@H]3C2=O)ncc1Cn1cc(NC(=O)c2nc(-c3c(S(C)(=O)=O)ccc(Cl)c3F)cnc2C)cn1` [Example 85, 6-(3 -Chloro-2-fluoro-6-(methylsulfonyl)phenyl)-3-methyl-N-(1-((4-methyl-2-((1R,5S)-2-oxo-3-azabicyclo[3.1.0]hexan-3-yl)pyrimidin-5-yl)methyl)-1H-pyrazol-4-yl)pyrazine-2-carboxamide] are 10.1 nM and 2070 nM.
